Like-named read-outs stand apart in the source and are kept apart here.
Legend:
[1] = tested on: SARS CoV-2 (USA_WA1/2020); test: SARS-CoV-2 CPE assay in Vero E6 cells; assay type: cell-based; settings: Severe acute respiratory syndrome coronavirus 2, Vero C1008, reference compounds in the same assay
hCoV-229E = hCoV-229E CPE assay; assay type: cell-based; settings: Human coronavirus 229E
YFV 17D = test: microbe, parasite or virus in culture; assay type: cell-based; settings: Yellow fever virus
[2] = tested on: DENV type 2 Rluc-NGC strain; test: microbe, parasite or virus in culture; assay type: cell-based; settings: Dengue virus, Vero
[3] = Cytotoxicity in parallel with OC43 CPE assay, without virus; settings: human
Huh7 cells = test: as above; settings: Huh7 cells; no virus; reference compounds
hCoV-OC43 = test: HCoV OC43 CPE assay in Huh7 cells; assay type: cell-based
[4] = Betacoronavirus 1, OC43, Huh-7, read-out: Average Inhibition (%)

CCN(CCO)CCCC(C)Nc1ccnc2cc(Cl)ccc12 (stereo not drawn) [Hydroxychloroquine]
IC50 [1]: 1.91 µM

CCN(CC)CCCC(C)Nc1ccnc2cc(Cl)ccc12 (stereo not drawn) [Chloroquine]
IC50 (hCoV-229E; MRCS cells, data not shown, read-out: IC50): 2.2 µM

NC(=O)c1ncn([C@@H]2O[C@H](CO)[C@@H](O)[C@H]2O)n1 [Ribavirin]
EC50 (YFV 17D; read-out: EC50 for YFV, FIG. 4B as described in Examples 3 & 4): 225 µM | EC50 (YFV 17D; read-out: EC50 for YFV, FIG. 4B legend): 136 µM | CC50 (in vitro): > 699 µM | EC50 [2]: 32.2 µM | inhibition at 0.015 µM [2]: 14.9% | inhibition at 0.046 µM [2]: 14.9% | inhibition at 0.137 µM [2]: 10.8% | inhibition at 0.412 µM [2]: 13.5% | inhibition at 1.235 µM [2]: 31.1% | inhibition at 3.704 µM [2]: 20.3% | inhibition at 11.111 µM [2]: 24.3% | inhibition at 33.333 µM [2]: 60.8% | inhibition at 100 µM [2]: 98.7% | inhibition at 300 µM [2]: 100%

CCC(CC)COC(=O)[C@H](C)N[P@](=O)(OC[C@H]1O[C@@](C#N)(c2ccc3c(N)ncnn23)[C@H](O)[C@@H]1O)Oc1ccccc1 [Remdesivir]
IC50 [1]: 3.9 µM | IC50 (hCoV-229E; 72 h): 0.0231 µM | viability at 7 days, 0.046 µM [3]: 100% | viability at 7 days, 0.137 µM [3]: 102% | viability at 7 days, 0.412 µM [3]: 104% | viability at 7 days, 1.235 µM [3]: 102% | viability at 7 days, 3.704 µM [3]: 86.9% | viability at 7 days, 11.11 µM [3]: 56.8% | viability at 7 days, 33.33 µM [3]: 36.9% | viability at 7 days, 100 µM [3]: 21.8% | CC50 (Huh7 cells): 17.2 µM | EC50 (hCoV-OC43; Betacoronavirus 1, OC43, Huh-7): 0.0414 µM | inhibition at 0.000457 µM (hCoV-OC43; [4]): -4.12% | inhibition at 0.001372 µM (hCoV-OC43; [4]): -0.1% | inhibition at 0.004115 µM (hCoV-OC43; [4]): 1.54% | inhibition at 0.01235 µM (hCoV-OC43; [4]): 8.25% | inhibition at 0.03704 µM (hCoV-OC43; [4]): 30.4% | inhibition at 0.11111 µM (hCoV-OC43; [4]): 83.4% | inhibition at 0.33333 µM (hCoV-OC43; [4]): 79.5% | inhibition at 1 µM (hCoV-OC43; [4]): 80.3%

From patent US20230137927A1, “INTERFERON TAU AS ANTIVIRAL THERAPY” (priority 2020, published 2023)
